Target: T1, SENP1(C603A) (Homo sapiens, UniProt Q9P0U3, C603A)
T1 construct: GST; made in house
T1 sequence (Q9P0U3 1-644 C603A): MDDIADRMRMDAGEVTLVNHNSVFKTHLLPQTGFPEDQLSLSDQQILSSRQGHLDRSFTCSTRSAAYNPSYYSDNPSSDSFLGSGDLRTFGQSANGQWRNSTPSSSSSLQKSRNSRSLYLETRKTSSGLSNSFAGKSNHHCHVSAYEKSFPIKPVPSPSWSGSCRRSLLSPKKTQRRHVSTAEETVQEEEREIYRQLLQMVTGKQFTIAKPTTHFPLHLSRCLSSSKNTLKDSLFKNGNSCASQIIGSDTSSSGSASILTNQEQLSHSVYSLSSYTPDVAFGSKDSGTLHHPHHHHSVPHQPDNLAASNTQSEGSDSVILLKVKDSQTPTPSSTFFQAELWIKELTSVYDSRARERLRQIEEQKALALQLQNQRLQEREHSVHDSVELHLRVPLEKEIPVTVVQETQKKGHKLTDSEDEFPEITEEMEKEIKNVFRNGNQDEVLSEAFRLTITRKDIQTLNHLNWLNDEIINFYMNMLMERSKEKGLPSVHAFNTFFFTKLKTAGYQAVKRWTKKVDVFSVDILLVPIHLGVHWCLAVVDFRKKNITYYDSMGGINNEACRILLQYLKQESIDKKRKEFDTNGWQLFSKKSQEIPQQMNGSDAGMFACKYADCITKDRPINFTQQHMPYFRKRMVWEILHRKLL
Experiment: In vitro thermal shift assay with mutant GST-SENP1(C603A)
Type: binding
Conditions: compared to DMSO
Procedure: FIGURE 2 UA directly interacts with Sentrin‐specific protease 1 (SENP1). (A) Cellular thermal shift assay to examine the interaction of UA with SENP1. IGROV1 CR cells pretreated with MG132 (10 μM, 1 h) were incubated with DMSO or UA for 4 h before being shifted to indicated temperatures. SENP1 stability was analyzed by using Western blot against SENP1 antibody. Right panel, quantification of non‐denatured SENP1 fraction shown in the left panel. (B) Cell‐free thermal shift assay to examine interactions of UA with SENP1. Purified SENP1 proteins were incubated with DMSO or UA for 4 h before being shifted to the indicated temperatures. SENP1 stability was analyzed by using Western blot against SENP1 antibody. Right panel, quantification of non‐denatured SENP1 fraction shown in the left panel. (C) The predicted docking pose of UA (C: green; H: white; O: red) at the hydrophobic catalytic cleft of SENP1 (C: salmon; H: white; O: red; N: blue). Key amino acid residues were highlighted. […] Stability of SENP1(C603A) was analyzed by using Western blot against SENP1 antibody. […] Left; Ultra‐high performance liquid‐chromatography‐MS/MS analyses of associated UA in indicated samples, right; quantification of data shown in left (the binding affinity of UA with SENP1‐C603A was normalized as 1). […]
The qu anti ficatio n of immunohistochemical sta in ing wa s scored blindly at lea st by two independent obser vers. […]

Compound	thermal stability of purified mutant SENP1(C603A)
CC1(C)CC[C@]2(C(=O)O)CC[C@]3(C)C(=CC[C@@H]4[C@@]5(C)CC[C@H](O[C@@H]6O[C@H](C(=O)O)[C@@H](O)[C@H](O[C@@H]7OC[C@@H](O)[C@H](O)[C@H]7O)[C@H]6O)C(C)(C)[C@@H]5CC[C@]43C)[C@@H]2C1 [Mc, Momordin Ιc]	not increased
C[C@H]1[C@H](C)CC[C@]2(C(=O)O)CC[C@]3(C)C(=CC[C@@H]4[C@@]5(C)CC[C@H](O)C(C)(C)[C@@H]5CC[C@]43C)[C@H]12 [UA, ursolic acid, reference compound]	not increased
